Data taken from patent publication US6939541B2, “Cloning, overexpression and therapeutic use of bioactive histidine ammonia lyase” (priority 2000, dated 2005).
pIC50, pKi: −log10 of the molar value.

Columns and labels:
[1] = molecular target: Corynebacteriaceae histidine ammonia lyase (HAL) (Glutamicibacter halophytocola, UniProt A0A5B8IKQ6, DEL117-117/DEL409-409/N172D/R434P/T116S); assay: biochemical; type: biochemical, bacterium of the family Corynebacteriaceae; settings: for pIC50: inhibition not complete, read-out: concentration required to reduce the activity by half
[2] = molecular target: T1, Streptomyces griseus histidine ammonia lyase (Streptomyces griseus, UniProt P24221); assay: Inhibition of Streptomyces griseus histidine ammonia lyase; type: biochemical; settings: equal molar concentration to histidine
Excerpt: HAL has a significant advantage over other histidine ammonia lyases in that it is relatively resistant to inhibition by L-histidinol. L-histidinol is a histidine analog. Because L-histidinol acts as a competitive inhibitor it must be present in high concentrations to have an effect on histidine dependent reactions. Using HAL to reduce the overall histidine pool would therefore greatly increase the effectiveness of L-histidinol. […] Because the Corynebacteriaceae histidine ammonia lyase (HAL) is not inhibited by L-histidinol at therapeutic L-histidinol levels it has a great advantage over other histidine ammonia lyases. […] However, with HAL 20% of activity still is retained when L-histidinol is present at 10 times the concentration of L-histidine.

[3] = test system: Herpes Simplex Virus (HSV); assay: HSV plaque assay in VERO cells; type: cell-based
Procedure: HAL was tested for its anti-viral activity against a variety of infectious viruses in vitro. Effectiveness against Herpes Simplex Virus (HSV) was assayed using the following method. Confluent VERO cells from a T-175 flask are tyrpsinized and split into as many T-25 flasks as the experiment requires. The cells are grown in RPMI-1640 with 10% newborn calf serum-heat inactivated, and L-glutamine. After cells have grown to confluence remove the media and add 0.5 ml of diluted virus (make a series of 1:5 dilution). Dilution of virus is prepared in RPMI-1640 with 2% NCS. The cells are then incubated for 1 hour at 37° C. and then 5 ml of RPMI-1640 with 2% NCS with or without the test compounds is added and incubation is allowed to continue for 1 day. After 24 hours the flasks are sealed with parafilm and frozen at −70° C. The cells are then allowed to thaw at RT to lyse dead intact cells, releasing virus. The viral suspension is then centrifuged to remove cell debris. The viral dilution that caused complete lysis will be used in the plaque assay. The plaque assay is set up by trypsinizing cells from a T-75 and resuspending the cells in RPMI-1640 with 10% NCS and poured into 6-well plate at 2 ml/well. The cells are incubated overnight at 37° C. The media is then removed by suction and 0.2 ml of the viral dilution is added and allowed to incubate for one hour. During this hour the agar is prepared and stored at 41° C. to prevent hardening. The agar concentrations are as follows: ½ vol. 2×BME (Gibco), 2% Pen/Strep, 2% NCS, and 1% agar. After the hour incubation 2 ml of the BME/agar is carefully added to the wells, so as not to disturb the cell monolayer. The plate is left at RT for twenty to thirty minutes to allow the agar to harden, and then the cells are incubated for 48 hours at 37° C. The cells are then stained used BME/agar containing neutral red. The BME/agar is prepared as before with the addition of neutral red stain (Gibco) to a final concentration of 5%. […] Plaques are then counted and the cells fixed for a permanent record.

[4] = test system: Respiratory Syncytial Virus (RSV); assay: RSV plaque assay in Hep2 cells; type: cell-based; settings: L-histidinol 3 mM
Procedure: Another successful study has been with Respiratory Syncytial Virus (RSV). RSV is another highly infectious disease causing agent. It causes lower respiratory-tract infections such as bronchitis and pneumonia in infancy and early childhood, with nearly 50% of infants suffering from an RSV infection during their first winter. Experiments were performed in tissue culture using the RSV Plaque Assay. The RSV plaque assay is performed similarly to the HSV assay. When performing the RSV assay Hep2 cells are used to propagate the RSV and the cells are grown in EMEM media with 2% FBS, L-glutamine and Antibiotic-Antimycotic. The virus stock is diluted in the medium and added to each well with or without the desired testing compound. The plates are incubated for 2 hours at 37° C. and the virus is removed. 0.5% agarose is added to the media and incubated for 5 days at 37° C. The plates are then fixed with 10% formalin and stained with crystal violet.

[5] = molecular target: histidine ammonia lyase isolated from Achromobacter liquidum; settings: Shibatani et al. 1975; cited from earlier work
[6] = molecular target: T1, Streptomyces griseus histidine ammonia lyase; settings: Wu et al.; cited from earlier work

Corynebacteriaceae histidine ammonia lyase (HAL), sequence (A0A5B8IKQ6 entry or part of it T116S/DEL117-117/N172D/DEL409-409/R434P): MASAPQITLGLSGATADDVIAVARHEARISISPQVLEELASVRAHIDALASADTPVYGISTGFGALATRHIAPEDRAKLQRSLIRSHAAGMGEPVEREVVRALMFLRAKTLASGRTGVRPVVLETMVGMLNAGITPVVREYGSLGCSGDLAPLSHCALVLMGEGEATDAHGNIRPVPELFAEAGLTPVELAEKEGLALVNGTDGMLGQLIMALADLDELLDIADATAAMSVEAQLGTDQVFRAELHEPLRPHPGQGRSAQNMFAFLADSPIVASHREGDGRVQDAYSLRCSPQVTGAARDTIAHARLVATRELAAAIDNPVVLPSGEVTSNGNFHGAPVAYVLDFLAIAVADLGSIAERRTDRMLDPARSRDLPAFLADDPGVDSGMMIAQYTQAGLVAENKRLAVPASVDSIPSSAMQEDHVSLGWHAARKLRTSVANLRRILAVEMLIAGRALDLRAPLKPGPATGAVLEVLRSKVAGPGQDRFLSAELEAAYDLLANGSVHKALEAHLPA
T1 sequence (P24221 whole entry): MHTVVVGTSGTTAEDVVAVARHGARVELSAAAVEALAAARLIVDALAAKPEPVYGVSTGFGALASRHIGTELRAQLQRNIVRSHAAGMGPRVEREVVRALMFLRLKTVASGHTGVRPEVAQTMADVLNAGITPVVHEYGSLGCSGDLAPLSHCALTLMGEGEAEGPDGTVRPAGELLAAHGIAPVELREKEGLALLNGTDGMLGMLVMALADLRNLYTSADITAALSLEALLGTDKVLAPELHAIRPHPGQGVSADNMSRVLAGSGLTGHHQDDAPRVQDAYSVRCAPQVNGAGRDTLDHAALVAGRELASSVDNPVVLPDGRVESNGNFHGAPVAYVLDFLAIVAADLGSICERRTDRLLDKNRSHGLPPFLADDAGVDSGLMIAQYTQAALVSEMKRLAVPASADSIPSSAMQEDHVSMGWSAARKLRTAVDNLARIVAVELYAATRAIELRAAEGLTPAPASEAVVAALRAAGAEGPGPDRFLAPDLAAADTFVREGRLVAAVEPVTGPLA

With N[C@@H](CCC(=O)N[C@@H](CS)C(=O)NCC(=O)O)C(=O)O [reduced glutathione] the pIC50 [1] was 1.82.
For O[C@@H](CS)[C@@H](O)CS [DTT], the pIC50 [1] was 1.82.
For N[C@H](CO)Cc1c[nH]cn1 [L-histidinol], the pKi [1] was 1.48 to 1.61, the “inhibition of HAL” value ([1]; therapeutic L-histidinol levels) was “not inhibited” and the “inhibition of the enzyme” value [2] was “completely inhibit”. For the same compound, the “inhibition of HSV” value ([3]; L-histidinol 0.1 mM) was “no inhibition”, the “inhibition of HSV” value ([3]; L-histidinol 0.5 mM) was “no inhibition” and the “inhibition of HSV” value ([3]; L-histidinol 1 mM) was 5 fold. For the same compound, the “inhibition of RSV plaque numbers” value [4] was “no inhibition” and the pKi [5] was 2.34.
For O=C(O)CN(CCN(CC(=O)O)CC(=O)O)CC(=O)O [EDTA], the “inhibition of the HAL reaction” value ([1]; concentrations as low as 1 mM) was “completely inhibit” and the “reversibility of the inhibition” value ([1]; presence of Mn^2+ at 1×10^5 M) was “reversible”.
For L-histidinol phosphate, the pKi [6] is listed as 3.57.
